The results in this text go back to patent US10487093B2, “Heterocyclic compounds, in particular 2-oxo-4,4,5,5,6,6,7,7-octahydrobenzoxazole derivatives, and their use as antibacterial compounds” (priority 2016, dated 2019).

The subject of assay [1] is Acinetobacter baumannii NCTC 13420. Description: MIC, broth microdilution (CLSI) versus planktonic bacteria. In kind it is cell-based. For orientation: Broth dilution looks for growth in wells or tubes with falling amounts of substance.
Assay [2] deals with Acinetobacter baumannii ATCC 19606. The description is as above. In kind it is cell-based.
Assay [3] relates to Enterobacter cloacae NCTC 13406. Described as above. In kind it is cell-based.
Assay [4] relates to Escherichia coli ATCC 25922. The description is as above. In kind it is cell-based.
For a further assay, the system named is E. coli MG1655. Described as above. The conditions noted are these: Escherichia coli, MG1655, read-out: MIC, Ec MG1655 WT. It counts as cell-based, Escherichia coli.
For assay [5], the system named is Haemophilus influenzae ATCC 49247. Described as above. It counts as cell-based.
Assay [6] relates to Pseudomonas aeruginosa ATCC 27853. The description is as above. It counts as cell-based.
For assay [7], the system named is Staphylococcus aureus ATCC 29213. The description is as above. In kind it is cell-based.
Assay [8] deals with Streptococcus pneumoniae ATCC 49619. The assay is described as above. It counts as cell-based.
The test system of the next assay is E. coli MG1655 S83L. In kind it is cell-based, Escherichia coli. The conditions noted are these: compared to the isogenic parent strain E. coli MG1655; S83L mutation on DNA gyrase subunit GyrA.
The next assay concerns E. coli MG1655 D87G. In kind it is cell-based, Escherichia coli. The conditions noted are these: compared to the isogenic parent strain E. coli MG1655; D87G mutation on DNA gyrase subunit GyrA.
Assay [9] has as its system human hepatic cell line (HepG2 ATCC HB-8065). As to the kind of experiment: Human cell viability assay (CellTiter-Glo). Particulars: Homo sapiens, HepG2, 24 h, read-out: IC50 (μg/mL) HepG2.
[10] abbreviates: NCTC13420, Acinetobacter baumannii NCTC 13420, 16-20 h, mode of three independent experiments, read-out: MIC, Ab NCTC 13420.
Setting [11] is: ATCC19606, Acinetobacter baumannii ATCC 19606, 16-20 h, mode of three independent experiments, read-out: MIC, Ab ATCC 19606.
Setting [12] is: NCTC13406, Enterobacter cloacae NCTC 13406, 16-20 h, mode of three independent experiments, read-out: MIC, Ecl NCTC 13406.
[13] abbreviates: ATCC25922, Escherichia coli ATCC 25922, 16-20 h, mode of three independent experiments, read-out: MIC, Ec ATCC 25922.
[14] abbreviates: ATCC49247, Haemophilus influenzae ATCC 49247, 16-20 h, mode of three independent experiments, read-out: MIC, Hi ATCC 49247.
[15] abbreviates: ATCC27853, Pseudomonas aeruginosa ATCC 27853, 16-20 h, mode of three independent experiments, read-out: MIC, Pa ATCC 27853.
The mark [16] stands for this setting: ATCC29213, Staphylococcus aureus ATCC 29213, 16-20 h, mode of three independent experiments, read-out: MIC, Sa ATCC 29213.
Where [17] appears, read: ATCC49619, Streptococcus pneumoniae ATCC 49619, 16-20 h, mode of three independent experiments, read-out: MIC, Sp ATCC 49619.
Setting [18] is: Acinetobacter baumannii, NCTC13420, read-out: MIC, Ab NCTC 13420.
The mark [19] stands for this setting: Enterobacter cloacae, NCTC13406, read-out: MIC, Ecl NCTC 13406.
[20] abbreviates: Escherichia coli, ATCC25922, read-out: MIC, Ec ATCC 25922.
The mark [21] stands for this setting: Haemophilus influenzae, ATCC49247, read-out: MIC, Hi ATCC 49247.
Where [22] appears, read: Pseudomonas aeruginosa, ATCC27853, read-out: MIC, Pa ATCC 27853.
[23] abbreviates: Staphylococcus aureus, ATCC29213, read-out: MIC, Sa ATCC 29213.
[24] abbreviates: Streptococcus pneumoniae, ATCC49619, read-out: MIC, Sp ATCC 49619.

Converted amounts (≈) assume the structure as drawn. Read-outs that look alike come from different tables or passages of the source. Some results are limits rather than exact numbers.

Regarding `COc1ccc2c3conc3c(=O)n(CCN[C@H]3CC[C@H]4[C@@H](C3)OC(=O)N4c3ccc4c(n3)NC(=O)CO4)c2c1` [Compound 11, (3aS,6S,7aR)-6-[(2-{7-methoxy-4-oxo-4H,5H-[1,2]oxazolo[3,4-c]quinolin-5-yl}ethyl)amino]-3-{3-oxo-2H,3H,4H-pyrido[3,2-b][1,4]oxazin-6-yl}-octahydro-1,3-benzoxazol-2-one], the MIC is less than 1 µg/mL in assay [1] (setting [10]); 1 to 10 µg/mL (≈ 1.83 to 18.3 µM) in [2] (setting [11]); 1 to 10 µg/mL (≈ 1.83 to 18.3 µM) in assay [3] (setting [12]); less than 1 µg/mL in assay [4] (setting [13]); less than 1 µg/mL with E. coli MG1655; 1 to 10 µg/mL (≈ 1.83 to 18.3 µM) in [5] (setting [14]). In addition, the MIC in [6] (setting [15]) was 1 to 10 µg/mL (≈ 1.83 to 18.3 µM); in [7] (setting [16]) it was less than 1 µg/mL; in assay [8] (setting [17]), 1 to 10 µg/mL (≈ 1.83 to 18.3 µM). Further, the “Fold increase in MIC, E. coli MG1655 S83L” value in the assay on E. coli MG1655 S83L is 2 fold. The “Fold increase in MIC, E. coli MG1655 D87G” value with E. coli MG1655 D87G was determined as 1 fold. In addition, the IC50 in [9] was in the range of 10 to 100 µg/mL (≈ 18.3 to 183 µM).

With `COC(=O)c1ccc2ccc(=O)n(CCN[C@@H]3CC[C@@H]4[C@@H](C3)OC(=O)N4c3ccc4c(n3)NC(=O)CO4)c2c1` [Compound 36, methyl 1-(2-{[(3aR,6R,7aR)-2-oxo-3-{3-oxo-2H,3H,4H-pyrido[3,2-b][1,4]oxazin-6-yl}-octahydro-1,3-benzoxazol-6-yl]amino}ethyl)-2-oxo-1,2-dihydroquinoline-7-carboxylate], the MIC in assay [1] (setting [10]) was less than 1 µg/mL; in assay [2] (setting [11]), less than 1 µg/mL; in assay [3] (setting [12]), less than 1 µg/mL; in [4] (setting [13]), less than 1 µg/mL; in [5] (setting [14]), less than 1 µg/mL; in [6] (setting [15]), 1 to 10 µg/mL (≈ 1.87 to 18.7 µM). Also, the MIC in [7] (setting [16]) and in assay [8] (setting [17]) was less than 1 µg/mL each time. Moreover, the IC50 in assay [9] was in the range of 10 to 100 µg/mL (≈ 18.7 to 187 µM).

As to `N#Cc1ccc2ccc(=O)n(CCN[C@@H]3CC[C@@H]4[C@@H](C3)OC(=O)N4c3ncc4c(n3)NC(=O)CO4)c2c1` [Compound 37, 1-(2-{[(3aR,6R,7aR)-2-oxo-3-{7-oxo-6H,7H,8H-pyrimido[5,4-b][1,4]oxazin-2-yl}-octahydro-1,3-benzoxazol-6-yl]amino}ethyl)-2-oxo-1,2-dihydroquinoline-7-carbonitrile], the MIC is 1 to 10 µg/mL (≈ 1.99 to 19.9 µM) in [1] (setting [10]); 1 to 10 µg/mL (≈ 1.99 to 19.9 µM) in assay [2] (setting [11]); less than 1 µg/mL in assay [3] (setting [12]); less than 1 µg/mL in [4] (setting [13]); less than 1 µg/mL in assay [5] (setting [14]); 1 to 10 µg/mL (≈ 1.99 to 19.9 µM) in [6] (setting [15]). Further, the MIC in [7] (setting [16]) and in [8] (setting [17]) was less than 1 µg/mL each time. In [9], the IC50 was more than 100 µg/mL.

Regarding `CNCCOc1ccc2ccc(=O)n(CCN[C@@H]3CC[C@@H]4[C@@H](C3)OC(=O)N4c3ccc4c(n3)NC(=O)CO4)c2c1` [Compound 39, (3aR,6R,7aR)—N-(2-{7-[2-(methylazaniumyl)ethoxy]-2-oxo-1,2-dihydroquinolin-1-yl}ethyl)-2-oxo-3-{3-oxo-2H,3H,4H-pyrido[3,2-b][1,4]oxazin-6-yl}-octahydro-1,3-benzoxazol-6-aminium dichloride], the MIC is 10 to 100 µg/mL in assay [1] (setting [18]); more than 100 µg/mL in assay [2] (Acinetobacter baumannii, ATCC19606, read-out: MIC, Ab ATCC 19606); 10 to 100 µg/mL in [3] (setting [19]); 1 to 10 µg/mL in assay [4] (setting [20]); 10 to 100 µg/mL in assay [5] (setting [21]); 1 to 10 µg/mL in assay [6] (setting [22]). In addition, the MIC in [7] (setting [23]) and in assay [8] (setting [24]) was 1 to 10 µg/mL each time. Further, the IC50 in assay [9] was more than 100 µg/mL.

With `NCCOc1ccc2ccc(=O)n(CCN[C@H]3CC[C@H]4[C@H](C3)OC(=O)N4c3ccc4c(n3)NC(=O)CO4)c2c1` [Compound 75, (3aS,6S,7aS)—N-{2-[7-(2-azaniumylethoxy)-2-oxo-1,2-dihydroquinolin-1-yl]ethyl}-2-oxo-3-{3-oxo-2H,3H,4H-pyrido[3,2-b][1,4]oxazin-6-yl}-octahydro-1,3-benzoxazol-6-aminium dichloride], the MIC is more than 100 µg/mL in [1] (setting [18]); 1 to 10 µg/mL in assay [3] (setting [19]); less than 1 µg/mL in assay [4] (setting [20]); 10 to 100 µg/mL in assay [5] (setting [21]); 1 to 10 µg/mL in assay [6] (setting [22]); 1 to 10 µg/mL in assay [7] (setting [23]). Besides, the MIC in assay [8] (setting [24]) is less than 1 µg/mL. Besides, the IC50 in assay [9] is more than 100 µg/mL.

Regarding `COc1ccc2ccc(=O)n(CCN(C(=O)CN)[C@H]3CC[C@H]4[C@H](C3)OC(=O)N4c3ccc4c(n3)NC(=O)CO4)c2n1` [Compound 78, {[(3aS,6S,7aS)-2-oxo-3-{3-oxo-2H,3H,4H-pyrido[3,2-b][1,4]oxazin-6-yl}-octahydro-1,3-benzoxazol-6-yl][2-(7-methoxy-2-oxo-1,2-dihydro-1,8-naphthyridin-1-yl)ethyl]carbamoyl}methanaminium chloride], the MIC in assay [1] (setting [18]) is 10 to 100 µg/mL; in assay [3] (setting [19]), more than 100 µg/mL; in assay [4] (setting [20]) it was 1 to 10 µg/mL; in assay [5] (setting [21]), 10 to 100 µg/mL; in assay [6] (setting [22]) it was 1 to 10 µg/mL; in assay [7] (setting [23]), less than 1 µg/mL. For the same molecule, the MIC in assay [8] (setting [24]) is less than 1 µg/mL. Further, in assay [9], the IC50 is more than 100 µg/mL.

In the case of `COc1ccc2ccc(=O)n(CCCN[C@@H]3CC[C@@H]4[C@@H](C3)OC(=O)N4c3ncc4c(n3)NC(=O)CO4)c2n1` [Compound 79, 1-(3-{[(3aR,6R,7aR)-2-oxo-3-{7-oxo-6H,7H,8H-pyrimido[5,4-b][1,4]oxazin-2-yl}-octahydro-1,3-benzoxazol-6-yl]amino}propyl)-7-methoxy-1,2-dihydro-1,8-naphthyridin-2-one], the MIC in assay [1] (setting [10]) was less than 1 µg/mL; in assay [2] (setting [11]), 1 to 10 µg/mL (≈ 1.92 to 19.2 µM); in assay [3] (setting [12]) it was 1 to 10 µg/mL (≈ 1.92 to 19.2 µM); in assay [4] (setting [13]), less than 1 µg/mL; in assay [5] (setting [14]), less than 1 µg/mL; in assay [6] (setting [15]), 1 to 10 µg/mL (≈ 1.92 to 19.2 µM). Besides, the MIC in assay [7] (setting [16]) and in [8] (setting [17]) was less than 1 µg/mL in each case. The IC50 in assay [9] lay in the range of 10 to 100 µg/mL (≈ 19.2 to 192 µM).

`Cn1ccc(-c2ccc3ccc(=O)n(CCN[C@H]4CC[C@H]5[C@H](C4)OC(=O)N5c4ccc5c(n4)NC(=O)CO5)c3c2)n1` [Compound 104, 1-(2-{[(3aS,6S,7aS)-2-oxo-3-{3-oxo-2H,3H,4H-pyrido[3,2-b][1,4]oxazin-6-yl}-octahydro-1,3-benzoxazol-6-yl]amino}ethyl)-7-(1-methyl-1H-pyrazol-3-yl)-1,2-dihydroquinolin-2-one]: the MIC in assay [1] (setting [10]) was less than 1 µg/mL; in assay [3] (setting [12]), 1 to 10 µg/mL (≈ 1.8 to 18 µM); in assay [4] (setting [13]), 1 to 10 µg/mL (≈ 1.8 to 18 µM); in assay [5] (setting [14]) it was less than 1 µg/mL; in assay [6] (setting [15]), 10 to 100 µg/mL (≈ 18 to 180 µM); in assay [7] (setting [16]) it was less than 1 µg/mL. In addition, the MIC in assay [8] (setting [17]) was less than 1 µg/mL. Besides, the IC50 in assay [9] lay within 10 to 100 µg/mL (≈ 18 to 180 µM).

As for `N#Cc1ccc2c(ccc(=O)n2CCN[C@@H]2CC[C@@H]3[C@@H](C2)OC(=O)N3c2ccc3c(n2)NC(=O)CO3)c1` [Compound 106, 1-(2-{[(3aR,6R,7aR)-2-oxo-3-{3-oxo-2H,3H,4H-pyrido[3,2-b][1,4]oxazin-6-yl}-octahydro-1,3-benzoxazol-6-yl]amino}ethyl)-2-oxo-1,2-dihydroquinoline-6-carbonitrile], the MIC in assay [1] (setting [10]) is 1 to 10 µg/mL (≈ 2 to 20 µM); in assay [3] (setting [12]), 1 to 10 µg/mL (≈ 2 to 20 µM); in [4] (setting [13]), less than 1 µg/mL; with E. coli MG1655, less than 1 µg/mL; in [7] (setting [16]), less than 1 µg/mL; in assay [8] (setting [17]), less than 1 µg/mL.

In the case of `C[C@H]1COc2c(N3CCN(C)CC3)c(F)cc3c(=O)c(C(=O)O)cn1c23` [LEV, levofloxacin, reference compound], in the assay with E. coli MG1655 S83L, the “Fold increase in MIC, E. coli MG1655 S83L” value is 8 fold. Moreover, the “Fold increase in MIC, E. coli MG1655 D87G” value with E. coli MG1655 D87G stood at 8 fold.
